Experimental data taken from patent US5744121A (priority 1996, dated 1998).
Like-named read-outs stand apart in the source and are kept apart here.

Legend:
[1] = Biodistribution in rats after iv injection; type: in vivo, Male Sprague-Dawley rats; conditions: average of 3 rats ± SD
Description: Male Sprague-Dawley rats (225-300 g), allowed free access to food and water, were used for an in vivo biodistribution study. While the rats were under ether anesthesia, 0.2 mL of a saline solution containing [^123 I]1a and 1b (8-10 μCi) was injected directly into the femoral vein, and rats were sacrificed at various time points postinjection by cardiac excision under ether anesthesia. The organs of interest were removed and weighed and the radioactivity was counted with a Packard […] automatic counter (Model 5000). The percentage dose per organ was calculated by a comparison of the tissue counts to suitably diluted aliquots of the injected material.

[2] = Regional brain distribution in rats after iv injection; type: in vivo, Male Sprague-Dawley rats; conditions: rat, iv, rats (Table III); for tissue uptake at 0.5 h: 30 min; for tissue uptake at 1 h: 60 min; for tissue uptake at 2 h: 120 min
[3] = Partition coefficient (octanol/phosphate); type: physicochemical; conditions: octanol/0.1M phosphate, pH 7.0; read-out: P.C (partition coefficient) (converted)
Source text: P.C = 1800 (octanol/0.1M phosphate, pH 7.0)

[4] = Stability of the radiolabelled product on storage; type: physicochemical; conditions: -20° C., at least four weeks, HPLC; 40320 min
[5] = cerebellum, read-out: Regional distribution, cerebellum
[6] = cortex, read-out: Regional distribution, cortex
[7] = hippocampus, read-out: Regional distribution, hippocampus
[8] = hypothalamus, read-out: Regional distribution, hypothalamus
[9] = striatum, read-out: Regional distribution, striatum

COc1ccccc1N1CCN(CCN(C(=O)c2ccc([123I])cc2)c2ccccn2)CC1 [[^123 I] 1a]
Blood uptake ([1]; 2 min): 4.49 ± 0.55 % dose/organ | Brain uptake ([1]; 2 min): 1.22 ± 0.22 % dose/organ | Heart uptake ([1]; 2 min): 0.91 ± 0.09 % dose/organ | Kidney uptake ([1]; 2 min): 5.20 ± 0.44 % dose/organ | Liver uptake ([1]; 2 min): 14.2 ± 3.1 % dose/organ | Lung uptake ([1]; 2 min): 2.39 ± 0.10 % dose/organ | Muscle uptake ([1]; 2 min): 11.29 ± 4.15 % dose/organ | Skin uptake ([1]; 2 min): 8.34 ± 1.22 % dose/organ | Spleen uptake ([1]; 2 min): 0.37 ± 0.13 % dose/organ | Thyroid uptake ([1]; 2 min): 0.09 ± 0.02 % dose/organ | Blood uptake ([1]; 30 min): 4.04 ± 1.24 % dose/organ | Brain uptake ([1]; 30 min): 0.22 ± 0.01 % dose/organ | Heart uptake ([1]; 30 min): 0.18 ± 0.04 % dose/organ | Kidney uptake ([1]; 30 min): 1.74 ± 0.49 % dose/organ | Liver uptake ([1]; 30 min): 8.71 ± 0.20 % dose/organ | Lung uptake ([1]; 30 min): 0.48 ± 0.05 % dose/organ | Muscle uptake ([1]; 30 min): 7.58 ± 2.48 % dose/organ | Skin uptake ([1]; 30 min): 8.24 ± 1.60 % dose/organ | Spleen uptake ([1]; 30 min): 0.14 ± 0.02 % dose/organ | Thyroid uptake ([1]; 30 min): 0.03 ± 0.02 % dose/organ | Blood uptake ([1]; 60 min): 2.73 ± 0.09 % dose/organ | Brain uptake ([1]; 60 min): 0.12 ± 0.005 % dose/organ | Heart uptake ([1]; 60 min): 0.13 ± 0.02 % dose/organ | Kidney uptake ([1]; 60 min): 1.06 ± 0.23 % dose/organ | Liver uptake ([1]; 60 min): 7.53 ± 0.99 % dose/organ | Lung uptake ([1]; 60 min): 0.31 ± 0.04 % dose/organ | Muscle uptake ([1]; 60 min): 4.34 ± 0.91 % dose/organ | Skin uptake ([1]; 60 min): 4.51 ± 1.00 % dose/organ | Spleen uptake ([1]; 60 min): 0.11 ± 0.04 % dose/organ | Thyroid uptake ([1]; 60 min): 0.02 ± 0.007 % dose/organ | Blood uptake ([1]; 120 min): 2.05 ± 0.30 % dose/organ | Brain uptake ([1]; 120 min): 0.05 ± 0.002 % dose/organ | Heart uptake ([1]; 120 min): 0.07 ± 0.003 % dose/organ | Kidney uptake ([1]; 120 min): 0.62 ± 0.11 % dose/organ | Liver uptake ([1]; 120 min): 5.16 ± 1.01 % dose/organ | Lung uptake ([1]; 120 min): 0.18 ± 0.002 % dose/organ | Muscle uptake ([1]; 120 min): 2.14 ± 0.15 % dose/organ | Skin uptake ([1]; 120 min): 5.82 ± 4.37 % dose/organ | Spleen uptake ([1]; 120 min): 0.07 ± 0.009 % dose/organ | Thyroid uptake ([1]; 120 min): 0.02 ± 0.01 % dose/organ | tissue uptake at 2 min [2, 5]: 0.64 ± 0.08 %ID/g | tissue uptake at 0.5 h [2, 5]: 0.07 ± 0.006 %ID/g | tissue uptake at 1 h [2, 5]: 0.04 ± 0.001 %ID/g | tissue uptake at 2 h [2, 5]: 0.024 ± 0.0002 %ID/g | tissue uptake at 2 min [2, 6]: 0.91 ± 0.06 %ID/g | tissue uptake at 0.5 h [2, 6]: 0.11 ± 0.01 %ID/g | tissue uptake at 1 h [2, 6]: 0.061 ± 0.002 %ID/g | tissue uptake at 2 h [2, 6]: 0.026 ± 0.002 %ID/g | tissue uptake at 2 min [2, 7]: 0.87 ± 0.18 %ID/g | tissue uptake at 0.5 h [2, 7]: 0.23 ± 0.007 %ID/g | tissue uptake at 1 h [2, 7]: 0.127 ± 0.009 %ID/g | tissue uptake at 2 h [2, 7]: 0.04 ± 0.003 %ID/g | tissue uptake at 2 min [2, 8]: 0.67 ± 0.1 %ID/g | tissue uptake at 0.5 h [2, 8]: 0.14 ± 0.04 %ID/g | tissue uptake at 1 h [2, 8]: 0.051 ± 0.004 %ID/g | tissue uptake at 2 h [2, 8]: 0.03 ± 0.0002 %ID/g | tissue uptake at 2 min [2, 9]: 0.76 ± 0.12 %ID/g | tissue uptake at 0.5 h [2, 9]: 0.09 ± 0.0001 %ID/g | tissue uptake at 1 h [2, 9]: 0.046 ± 0.004 %ID/g | tissue uptake at 2 h [2, 9]: 0.021 ± 0.0007 %ID/g | logD [3]: 3.26 | purity on storage [4]: > 95%
